Data reported in PubChem BioAssay (NCI).
Values joined by “and” are separate entries in the source; they are usually repeats but may differ in a detail not shown here. Equal entries are not always repeated.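 How tested: cells in 96-well plates exposed to compound for 48 hours at five concentrations. Abbreviation: GI50, concentration required for 50% inhibition of growth. At the TGI there is no net growth.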

What was measured:
Assay in all cases: inhibition of tumour cell growth, NCI panel, 48 h
SN12C renal = system: SN12C renal
HCC-2998 colon = system: HCC-2998 colon
A498 renal = system: A498 renal
SK-OV-3 ovarian = system: SK-OV-3 ovarian
NCI/ADR-RES ovarian = system: NCI/ADR-RES ovarian
HOP-62 NSCLC = system: HOP-62 NSCLC
MDA-MB-231 breast = system: MDA-MB-231 breast
DU-145 prostate = system: DU-145 prostate
SW-620 colon = system: SW-620 colon
SNB-19 CNS = system: SNB-19 CNS

| Compound | TGI (SN12C renal) | TGI (HCC-2998 colon) | TGI (A498 renal) | TGI (SK-OV-3 ovarian) | TGI (NCI/ADR-RES ovarian) | TGI (HOP-62 NSCLC) | TGI (MDA-MB-231 breast) | TGI (DU-145 prostate) | TGI (SW-620 colon) | TGI (SNB-19 CNS) | GI50 (SN12C renal) | GI50 (HCC-2998 colon) | GI50 (A498 renal) | GI50 (SK-OV-3 ovarian) | GI50 (NCI/ADR-RES ovarian) | GI50 (HOP-62 NSCLC) | GI50 (MDA-MB-231 breast) | GI50 (DU-145 prostate) | GI50 (SW-620 colon) |
| --- | --- | --- | --- | --- | --- | --- | --- | --- | --- | --- | --- | --- | --- | --- | --- | --- | --- | --- | --- |
| COc1ccccc1C(=O)c1c(N2CCCCC2)c(=O)c1=O | > 100 µM | > 100 µM | > 100 µM | > 100 µM | > 100 µM | > 100 µM | > 100 µM | > 100 µM | > 100 µM | > 100 µM | – | – | – | – | – | – | – | – | – |
| O=C1/C(=C/c2cccc(Oc3ccccc3)c2)N=C(c2ccccc2)N1c1nc2ccc(Sc3ccccc3)cc2[nH]1 | 70.5 µM | 26.3 µM | 81.2 µM | > 100 µM | 50.4 µM | > 100 µM | 49.9 µM | > 100 µM | > 100 µM | > 100 µM | – | – | – | – | – | – | – | – | – |
| O=S1(=O)NNC(=NCc2ccc(F)cc2)c2ccccc21 | > 100 µM | > 100 µM | > 100 µM | > 100 µM | > 100 µM | > 100 µM | > 100 µM | > 100 µM | > 100 µM | > 100 µM | – | – | – | – | – | – | – | – | – |
| Oc1ccc(-c2c3c(nc4c2CCc2ccc(Br)cc2-4)-c2cc(Br)ccc2CC3)cc1 | 43.6 µM | 40.1 µM | 48.6 µM | 30.6 µM | 46 µM | 33.6 µM | 34.5 µM | 59.5 µM | – | 46.9 µM | – | – | – | – | – | – | – | – | – |
| COc1ccc(C2CC(c3c(C)nn(-c4ccccc4)c3-c3ccc(C)cc3O)=NN2c2ccccc2)cc1 (stereo not given) | > 100 µM | > 100 µM | > 100 µM | > 100 µM | > 100 µM | > 100 µM | > 100 µM | > 100 µM | > 100 µM | > 100 µM | – | – | – | – | – | – | – | – | – |
| Cc1cc(S(=O)(=O)Nc2n[nH]c(Nc3ccccc3)n2)c(S)cc1Cl | > 10 µM | > 10 µM | > 10 µM | > 10 µM | > 10 µM | > 10 µM | > 10 µM | > 10 µM | > 10 µM | > 10 µM | – | – | – | – | – | – | – | – | – |
| O=C1c2cc([N+](=O)[O-])ccc2NC2C(O)c3ccccc3N12 (stereo not given) | > 100 µM | > 100 µM | 41.8 µM | 36 µM | 63.1 µM | > 100 µM | > 100 µM | 94.5 µM | – | > 100 µM | – | – | – | – | – | – | – | – | – |
| CCCCn1cc(C(=O)O)c(=O)c2c3sccc3ccc21 | > 100 µM | > 100 µM | > 100 µM | > 100 µM | 43.4 µM | > 100 µM | > 100 µM | > 100 µM | > 100 µM | > 100 µM | – | – | – | – | – | – | – | – | – |
| COc1cc2c3c(n(CCCNCCO)c(=O)c2cc1OC)-c1cc2c(cc1C3=O)OCO2 | 1.19 µM | 1.97 µM and 11.1 µM | 1.87 µM and 1.49 µM | 2.15 µM and 19 µM | > 100 µM | – | 2.03 µM and 5.18 µM | – | 2.6 µM and 2.03 µM | > 100 µM | < 0.0119 µM | 0.978 µM | 0.033 µM | 0.603 µM and 0.663 µM | 0.295 µM | 0.0127 µM and 0.0979 µM | 1.09 µM | 0.0299 µM | 0.0228 µM |
| COc1ccc(CNc2nc(NCc3ccc(OC)cc3)nc(NC3CCCCC3)n2)cc1 | > 100 µM | 3.74 µM | > 100 µM | > 100 µM | 5.36 µM | > 100 µM | 7.73 µM | 6.88 µM | > 100 µM | 5.96 µM | – | – | – | – | – | – | – | – | – |
